Experimental data taken from US10647680B2, “Urea compound, preparation method therefor and medical use thereof” (Ancureall Pharmaceutical (Shanghai) Co., Ltd., priority 2016, dated 2020).
Where a name gives a salt, the structure may show the parent alone.

How the values were obtained:
[1] = Solubility test; format: physicochemical; details: in water at 25° C.±2° C.
Description: The fine powder of the test sample was weighed into an appropriate amount of water at 25° C.±2° C. and shaken vigorously for 30 seconds every 5 minutes so that it was fully dissolved within 30 minutes. If no visible solute particles were observed, it was considered completely dissolved. “Readily soluble” means that 1 g of the test sample could be dissolved in 1-10 ml of water; and “soluble” means that 1 g of the test sample could be dissolved in 10-30 ml of water; “slightly soluble” means that 1 g of the test sample could be dissolved in 30-100 ml of water; and “sparingly soluble” means that 1 g of the test sample could be dissolved in 100-1,000 ml of water; “nearly insoluble or insoluble” means that 1 g of the test sample could not be completely dissolved in 10,000 ml of water.

[2] = tested on: MV4-11 (FLT3 ITD+/+ mutant type); test: In vitro growth inhibition (GI50), MV4-11; format: cell-based, human; details: for GI50: Homo sapiens, MV4-11, Cell lines of leukemia, read-out: GI 50 MV4-11 FLT3 (ITD +/+)
[3] = tested on: MOLM-13 (FLT3 ITD+/− mutant type); test: In vitro growth inhibition (GI50), MOLM-13; format: cell-based, human; details: for GI50: Homo sapiens, MOLM-13, Cell lines of leukemia, read-out: GI 50 MOLM-13 FLT3 (ITD+/−)
[4] = tested on: RS4; 11 (FLT3 wild type); test: In vitro growth inhibition (GI50), RS4; 11; format: cell-based, human; details: Homo sapiens, RS4-11; Cell lines of leukemia; read-out: GI 50 RS4: 11 FLT3 (WT)
[5] = tested on: K562 (FLT3 negative expression, positive expression of BCR-ABL fusion protein); test: In vitro growth inhibition (GI50), K562; format: cell-based; details: Homo sapiens, Cell lines of leukemia, read-out: GI 50 K562 BCR-ABL
[6] = tested on: RAMOS (positive expression of Brutons tyrosine protein kinase); test: In vitro growth inhibition (GI50), RAMOS; format: cell-based; details: Homo sapiens, Cell lines of leukemia, read-out: GI 50 Ramos BTK
[7] = tested on: U937 (FLT3 wild-type); test: In vitro growth inhibition (GI50), U937; format: cell-based; details: Homo sapiens, U-937; Cell lines of leukemia; read-out: GI 50 U937 FLT 3(WT)
[8] = tested on: Kasumi-1 (c-Kit N822K mutant type); test: In vitro growth inhibition (GI50), Kasumi-1; format: cell-based; details: Homo sapiens, Cell lines of leukemia, read-out: GI 50 Kasumi-1 Kit (N822K)
Outline: (§1)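 Cells in RPMI1640 with 10% FBS, seeded at 5–10×10^4 cells/mL, exposed next day to compound at 5,000 nM down to 0.01 nM (2- or 10-fold dilutions, ≤1% solvent) for 3–5 days at 37 °C. CCK8 absorbance at 450 nm, growth rate relative to pre-treatment and solvent controls, GI50 from concentration–growth curve.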

[9] = tested on: KG-1 (expressing FGFR1OP2-FGFR1 fusion protein); test: In vitro growth inhibition (GI50), KG-1; format: cell-based; details: Homo sapiens; Cell lines of leukemia; read-out: GI 50 KG-1 FGFR1OP 2-FGFR1
[10] = tested on: HL-60 (FLT3 wild type); test: In vitro growth inhibition (GI50), HL-60; format: cell-based; details: Homo sapiens, Cell lines of leukemia, read-out: GI 50 HL60 FLT3 (WT)
Outline: as §1

[11] = tested on: OCI-AML3 (NPMc+ mutant type); test: In vitro growth inhibition (GI50), OCI-AML3; format: cell-based; details: Homo sapiens, OCI-AML-3; Cell lines of leukemia; read-out: GI 50 OCI- AML3 NPMc+
[12] = compared with the control compound AC220

With `CC(C)(C)c1cc(NC(=O)Nc2ccc(-n3cnc4cc(OCCN5CCOCC5)ccc43)cc2)no1` [Compound 16 Mesylate, 1-(5-tert-butyl-isoxazol-3-yl)-3-{4-[5-(2-morpholin-4-yl-ethoxyl)-benzimidazol-1-yl]-phenyl}-urea] the Solubility ([1]; listed as 16 Mesylate) was “readily soluble (“Readily soluble” means that 1 g of the test sample could be dissolved in 1-10 ml of water)”.

In the case of `COc1ccc2c(c1)ncn2-c1ccc(NC(=O)Nc2cc(C(C)(C)C)n[nH]2)cc1` [Compound 71 Hydrochloride, 1-(5-tert-butyl-2H-pyrazol-3-yl)-3-[4-(5-methoxyl-benzimidazol-1-yl)-phenyl]-urea], the Solubility ([1]; listed as 71 Hydrochloride) is reported as “slightly soluble (“slightly soluble” means that 1 g of the test sample could be dissolved in 30-100 ml of water)”.

With `COCCOc1ccc2c(c1)ncn2-c1ccc(NC(=O)Nc2cc(C(C)(C)C)n[nH]2)cc1` [Compound 77 Benzene sulfonate, 1-(5-tert-butyl-2H-pyrazol-3-yl)-3-{4-[5-(2-methoxyl-ethoxyl)-benzimidazol-1-yl]-phenyl}-urea] the Solubility ([1]; listed as 77 Benzene sulfonate) was “slightly soluble (“slightly soluble” means that 1 g of the test sample could be dissolved in 30-100 ml of water)”.

For `COCCOc1ccc2c(c1)ncn2-c1ccc(NC(=O)Nc2cc(C(C)(C)C)n[nH]2)cc1` [Compound 77 Hydrochloride, 1-(5-tert-butyl-2H-pyrazol-3-yl)-3-{4-[5-(2-methoxyl-ethoxyl)-benzimidazol-1-yl]-phenyl}-urea], the Solubility ([1]; listed as 77 Hydrochloride) was “slightly soluble (“slightly soluble” means that 1 g of the test sample could be dissolved in 30-100 ml of water)”.

In the case of `COCCOc1ccc2c(c1)ncn2-c1ccc(NC(=O)Nc2cc(C(C)(C)C)n[nH]2)cc1` [Compound 77 Trifluoroacetates, 1-(5-tert-butyl-2H-pyrazol-3-yl)-3-{4-[5-(2-methoxyl-ethoxyl)-benzimidazol-1-yl]-phenyl}-urea], the Solubility ([1]; listed as 77 Trifluoroacetates) is reported as “slightly soluble (“slightly soluble” means that 1 g of the test sample could be dissolved in 30-100 ml of water)”.

In the case of `COCCOc1ccc2c(c1)ncn2-c1ccc(NC(=O)Nc2cc(C(C)(C)C)n[nH]2)cc1` [Compound 77 p-toluenesulfonate, 1-(5-tert-butyl-2H-pyrazol-3-yl)-3-{4-[5-(2-methoxyl-ethoxyl)-benzimidazol-1-yl]-phenyl}-urea], the Solubility ([1]; listed as 77 p-toluenesulfonate) is reported as “slightly soluble (“slightly soluble” means that 1 g of the test sample could be dissolved in 30-100 ml of water)”.

In the case of `CN(C)CCCOc1ccc2c(c1)ncn2-c1ccc(NC(=O)Nc2cc(C(C)(C)C)n[nH]2)cc1` [Compound 81 Mesylate], the Solubility [1] is reported as “readily soluble (“Readily soluble” means that 1 g of the test sample could be dissolved in 1-10 ml of water)”.

In the case of `CN(C)CCCOc1ccc2c(c1)ncn2-c1ccc(NC(=O)Nc2cc(C(C)(C)C)n[nH]2)cc1` [Compound 81], the Solubility ([1]; listed as 81 Free base) is reported as “insoluble (“nearly insoluble or insoluble” means that 1 g of the test sample could not be completely dissolved in 10,000 ml of water)”, the GI50 [2] is reported as 0.01 to 0.1 nM and the “inhibition activity against the growth of MV4-11 cells compared with AC220” value [2, 12] is reported as “stronger inhibition activity”. For the same compound, the GI50 [3] was 0.01 to 0.1 nM, the “inhibition activity against the growth of MOLM-13 cells compared with AC220” value [3, 12] was “stronger inhibition activity” and the GI50 [4] was 0.01 to 0.1 µM. It also gave a GI50 [5] of 0.1 to 1 µM, a GI50 [6] of 0.1 to 1 µM and a GI50 [7] of 0.1 to 1 µM. The GI50 [8] was > 1 µM, the GI50 [9] was > 1 µM and the GI50 [10] was 0.1 to 1 µM. The GI50 [11] was > 1 µM.

With `CC(C)(C)c1cc(NC(=O)Nc2ccc(-n3cnc4cc(OCCN5CCOCC5)ccc43)cc2)[nH]n1` [Compound 89 Mesylate, 1-(5-tert-butyl-2H-pyrazol-3-yl)-3-{4-[5-(2-morpholin-4-yl-ethoxyl)-benzimidazol-1-yl]-phenyl}-urea] the Solubility [1] was “readily soluble (“Readily soluble” means that 1 g of the test sample could be dissolved in 1-10 ml of water)”.

For `COCCOc1ccc2ncn(-c3ccc(NC(=O)Nc4cc(C(C)(C)C)n[nH]4)cc3)c2c1` [Compound 98 Mesylate, 1-(5-tert-butyl-2H-pyrazol-3-yl)-3-{4-[6-(2-methoxyl-ethoxyl)-benzimidazol-1-yl]-phenyl}-urea], the Solubility [1] was “readily soluble (“Readily soluble” means that 1 g of the test sample could be dissolved in 1-10 ml of water)”.

In the case of `COCCOc1ccc2ncn(-c3ccc(NC(=O)Nc4cc(C(C)(C)C)n[nH]4)cc3)c2c1` [Compound 98, 1-(5-tert-butyl-2H-pyrazol-3-yl)-3-{4-[6-(2-methoxyl-ethoxyl)-benzimidazol-1-yl]-phenyl}-urea], the Solubility ([1]; listed as 98 Free base) is reported as “insoluble (“nearly insoluble or insoluble” means that 1 g of the test sample could not be completely dissolved in 10,000 ml of water)”, the GI50 [2] is reported as 0.1 to 1 nM and the GI50 [3] is reported as 0.1 to 1 nM. For the same compound, the GI50 [4] was > 1 µM, the GI50 [5] was > 1 µM and the GI50 [6] was > 1 µM. For the same compound, the GI50 [7] was > 1 µM, the GI50 [8] was > 1 µM and the GI50 [9] was > 1 µM. The GI50 [10] was > 1 µM and the GI50 [11] was > 1 µM.

In the case of `CCCCCCOc1ccc2c(c1)ncn2-c1ccc(NC(=O)n2nc(C(C)(C)C)cc2N)cc1` [Compound 117 Mesylate, 5-amino-3-tert-butyl-pyrazol-1-carboxylic acid [4-(5-hexyloxyl-benzimidazol-1-yl)-phenyl]-amide], the Solubility [1] is reported as “readily soluble (“Readily soluble” means that 1 g of the test sample could be dissolved in 1-10 ml of water)”.

With `CCCCCCOc1ccc2c(c1)ncn2-c1ccc(NC(=O)n2nc(C(C)(C)C)cc2N)cc1` [Compound 117, 5-amino-3-tert-butyl-pyrazol-1-carboxylic acid [4-(5-hexyloxyl-benzimidazol-1-yl)-phenyl]-amide] the Solubility ([1]; listed as 117 Free base) was “insoluble (“nearly insoluble or insoluble” means that 1 g of the test sample could not be completely dissolved in 10,000 ml of water)”, the GI50 [2] was 100 to 1000 nM and the GI50 [3] was 100 to 1000 nM. The GI50 [4] was > 1 µM, the GI50 [5] was > 1 µM and the GI50 [6] was > 1 µM. For the same compound, the GI50 [7] was > 1 µM, the GI50 [8] was > 1 µM and the GI50 [9] was > 1 µM. For the same compound, the GI50 [10] was > 1 µM and the GI50 [11] was > 1 µM.

For `CC(C)(C)c1cc(N)n(C(=O)Nc2ccc(-n3cnc4cc(OCCO)ccc43)cc2)n1` [Compound 121 Mesylate, 5-amino-3-tert-butyl-pyrazol-1-carboxylic acid {4-[5-(2-hydroxy-ethoxyl)-benzimidazol-1-yl]-phenyl}-amide], the Solubility [1] was “readily soluble (“Readily soluble” means that 1 g of the test sample could be dissolved in 1-10 ml of water)”.

With `CC(C)(C)c1cc(N)n(C(=O)Nc2ccc(-n3cnc4cc(OCCO)ccc43)cc2)n1` [Compound 121, 5-amino-3-tert-butyl-pyrazol-1-carboxylic acid {4-[5-(2-hydroxy-ethoxyl)-benzimidazol-1-yl]-phenyl}-amide] the Solubility ([1]; listed as 121 Free base) was “insoluble (“nearly insoluble or insoluble” means that 1 g of the test sample could not be completely dissolved in 10,000 ml of water)”, the GI50 [2] was 100 to 1000 nM and the GI50 [3] was 100 to 1000 nM. The GI50 [4] was > 1 µM, the GI50 [5] was > 1 µM and the GI50 [6] was > 1 µM. The GI50 [7] was > 1 µM, the GI50 [8] was > 1 µM and the GI50 [9] was > 1 µM. For the same compound, the GI50 [10] was > 1 µM and the GI50 [11] was > 1 µM.

For `COc1cc2ncn(-c3ccc(NC(=O)n4nc(C(C)(C)C)cc4N)cc3)c2cc1OC` [Compound 129 Mesylate, 5-amino-3-tert-butyl-pyrazol-1-carboxylic acid [4-(5,6-dimethoxyl-benzimidazol-1-yl)-phenyl]-amide], the Solubility [1] was “readily soluble (“Readily soluble” means that 1 g of the test sample could be dissolved in 1-10 ml of water)”.
